Key:
RAW264.7 [1] = experiment: Cytotoxicity against mouse RAW264.7 cells assessed as cell viability at 40 uM measured after 24 hrs by MTT assay; type: toxicity, cell-based; details: raw264.7, 24 h
RAW264.7 [2] = experiment: Antiinflammatory activity in LPS-induced mouse RAW264.7 cells assessed as inhibition of IL-6 level at 20 uM incubated for 24 hrs by ELISA method relative to control; type: functional
RAW264.7 [3] = experiment: Antiinflammatory activity in LPS-induced mouse RAW264.7 cells assessed as inhibition of TNF-alpha level at 20 uM incubated for 24 hrs by ELISA method relative to control; type: functional

Row | Compound | Activity (RAW264.7 [1]) | inhibition at 20 µM (RAW264.7 [2]) [%] | inhibition at 20 µM (RAW264.7 [3]) [%]
1 | CCOC(=O)c1noc2c1C[C@@]1(C)[C@@H](CC[C@]3(C)[C@@H]1CC=C1[C@@H]4CC(C)(C)CC[C@]4(C(=O)OCc4ccccc4)CC[C@]13C)[C@]2(C)COC(=O)CCC(=O)N[C@H](CCSC)C(=O)OC | Non-toxic | 44.6 | 52.2
2 | CCOC(=O)c1noc2c1C[C@@]1(C)[C@@H](CC[C@]3(C)[C@@H]1CC=C1[C@@H]4CC(C)(C)CC[C@]4(C(=O)OCc4ccccc4)CC[C@]13C)[C@]2(C)COC(=O)CCC(=O)N1CCN(C(C)C)CC1 | Non-toxic | 68.6 | 78.1
3 | CCOC(=O)c1noc2c1C[C@@]1(C)[C@@H](CC[C@]3(C)[C@@H]1CC=C1[C@@H]4CC(C)(C)CC[C@]4(C(=O)OCc4ccccc4)CC[C@]13C)[C@]2(C)COC(=O)c1cc2ccccc2[nH]1 | Non-toxic | 15 | 9.1
4 | CCOC(=O)c1noc2c1C[C@@]1(C)[C@@H](CC[C@]3(C)[C@@H]1CC=C1[C@@H]4CC(C)(C)CC[C@]4(C(=O)OCc4ccccc4)CC[C@]13C)[C@]2(C)COC(=O)CCC(=O)N1CCN(CC)CC1 | Non-toxic | 66.3 | 75.4
5 | CCOC(=O)c1noc2c1C[C@@]1(C)[C@@H](CC[C@]3(C)[C@@H]1CC=C1[C@@H]4CC(C)(C)CC[C@]4(C(=O)OCc4ccccc4)CC[C@]13C)[C@]2(C)COC(=O)CCSSCCC(=O)N1CCN(CC)CC1 | – | 26.8 | 22.7
6 | CCOC(=O)c1noc2c1C[C@@]1(C)[C@@H](CC[C@]3(C)[C@@H]1CC=C1[C@@H]4CC(C)(C)CC[C@]4(C(=O)OCc4ccccc4)CC[C@]13C)[C@]2(C)COC(=O)CCC(=O)N1CCCCC1 | Non-toxic | 50.6 | 61
7 | CCOC(=O)c1noc2c1C[C@@]1(C)[C@@H](CC[C@]3(C)[C@@H]1CC=C1[C@@H]4CC(C)(C)CC[C@]4(C(=O)OCc4ccccc4)CC[C@]13C)[C@]2(C)COC(=O)CCC(=O)N[C@@H](CCC(=O)OC)C(=O)OC | Non-toxic | 22 | 33.6
8 | CCOC(=O)c1noc2c1C[C@@]1(C)[C@@H](CC[C@]3(C)[C@@H]1CC=C1[C@@H]4CC(C)(C)CC[C@]4(C(=O)OCc4ccccc4)CC[C@]13C)[C@]2(C)COC(=O)c1cnccn1 | Non-toxic | 5.92 | 8.27
9 | CCOC(=O)c1noc2c1C[C@@]1(C)[C@@H](CC[C@]3(C)[C@@H]1CC=C1[C@@H]4CC(C)(C)CC[C@]4(C(=O)OCc4ccccc4)CC[C@]13C)[C@]2(C)COC(=O)CCC(=O)N[C@@H](CC(=O)OC)C(=O)OC | Non-toxic | 37.6 | 54.3
10 | CCOC(=O)c1noc2c1C[C@@]1(C)[C@@H](CC[C@]3(C)[C@@H]1CC=C1[C@@H]4CC(C)(C)CC[C@]4(C(=O)OCc4ccccc4)CC[C@]13C)[C@]2(C)COC(=O)[C@H](CCSC)NC(=O)OC(C)(C)C | Non-toxic | 11.7 | 15.3
11 | CCOC(=O)c1noc2c1C[C@@]1(C)[C@@H](CC[C@]3(C)[C@@H]1CC=C1[C@@H]4CC(C)(C)CC[C@]4(C(=O)OCc4ccccc4)CC[C@]13C)[C@]2(C)COC(=O)CCn1cccc1 | Non-toxic | 46.2 | 52.5
12 | CCOC(=O)c1noc2c1C[C@@]1(C)[C@@H](CC[C@]3(C)[C@@H]1CC=C1[C@@H]4CC(C)(C)CC[C@]4(C(=O)OCc4ccccc4)CC[C@]13C)[C@]2(C)COC(=O)CCSSCCC(=O)N1CCCCC1 | Non-toxic | 24.5 | 14.2
13 | CCOC(=O)c1noc2c1C[C@@]1(C)[C@@H](CC[C@]3(C)[C@@H]1CC=C1[C@@H]4CC(C)(C)CC[C@]4(C(=O)OCc4ccccc4)CC[C@]13C)[C@]2(C)COC(=O)CCSSCCC(=O)N[C@@H](CC(=O)OC)C(=O)OC | Non-toxic | 6.08 | 7.53
14 | CCOC(=O)c1noc2c1C[C@@]1(C)[C@@H](CC[C@]3(C)[C@@H]1CC=C1[C@@H]4CC(C)(C)CC[C@]4(C(=O)OCc4ccccc4)CC[C@]13C)[C@]2(C)COC(=O)CCc1c[nH]c2ccccc12 | Non-toxic | 18.9 | 15.8
15 | CCOC(=O)c1noc2c1C[C@@]1(C)[C@@H](CC[C@]3(C)[C@@H]1CC=C1[C@@H]4CC(C)(C)CC[C@]4(C(=O)OCc4ccccc4)CC[C@]13C)[C@]2(C)COC(=O)[C@H](Cc1ccccc1)NC(=O)OC(C)(C)C | Non-toxic | 44.9 | 59.3
16 | CCOC(=O)c1noc2c1C[C@@]1(C)[C@@H](CC[C@]3(C)[C@@H]1CC=C1[C@@H]4CC(C)(C)CC[C@]4(C(=O)OCc4ccccc4)CC[C@]13C)[C@]2(C)COC(=O)[C@H](CC(C)C)NC(=O)OC(C)(C)C | Non-toxic | 4.25 | 7.45
17 | CCOC(=O)c1noc2c1C[C@@]1(C)[C@@H](CC[C@]3(C)[C@@H]1CC=C1[C@@H]4CC(C)(C)CC[C@]4(C(=O)OCc4ccccc4)CC[C@]13C)[C@]2(C)COC(=O)CCC(=O)N[C@@H](CC(C)C)C(=O)OC | Non-toxic | 25.7 | 33.1
18 | CCOC(=O)c1noc2c1C[C@@]1(C)[C@@H](CC[C@]3(C)[C@@H]1CC=C1[C@@H]4CC(C)(C)CC[C@]4(C(=O)OCc4ccccc4)CC[C@]13C)[C@]2(C)COC(=O)c1ccccc1C(=O)N[C@@H](CCC(=O)OC)C(=O)OC | Non-toxic | 8.65 | 14.8
19 | CCOC(=O)c1noc2c1C[C@@]1(C)[C@@H](CC[C@]3(C)[C@@H]1CC=C1[C@@H]4CC(C)(C)CC[C@]4(C(=O)OCc4ccccc4)CC[C@]13C)[C@]2(C)COC(=O)[C@H](CCC(=O)OC)NC(=O)OC(C)(C)C | Non-toxic | 55.4 | 60
20 | CCOC(=O)c1noc2c1C[C@@]1(C)[C@@H](CC[C@]3(C)[C@@H]1CC=C1[C@@H]4CC(C)(C)CC[C@]4(C(=O)OCc4ccccc4)CC[C@]13C)[C@]2(C)COC(=O)CCC(=O)N[C@@H](Cc1ccccc1)C(=O)OC | Non-toxic | 25 | 31.7
21 | CCOC(=O)c1noc2c1C[C@@]1(C)[C@@H](CC[C@]3(C)[C@@H]1CC=C1[C@@H]4CC(C)(C)CC[C@]4(C(=O)OCc4ccccc4)CC[C@]13C)[C@]2(C)COC(=O)c1ccccc1C(=O)N1CCN(C(C)C)CC1 | Non-toxic | 11.4 | 22.9
